Experimental data reported in US9308182B2 (TEVA PHARMACEUTICAL INDUSTRIES, LTD., priority 2012, dated 2016).
Like-named read-outs stand apart in the source and are kept apart here.

Key:
[1] = target: MAO-A (Rattus norvegicus, UniProt P21396); experiment: in vivo; conditions: rat, sc
Excerpt: (§1) ALZET® osmotic minipumps are described in Perkins L, Peer C, and Murphy-Hackley P. “Chapter 21: The use of mini-osmotic pumps in continuous infusion studies” in Handbook of Pre-Clinical Continuous Intravenous Infusion, (Smith & Healing, eds., Taylor and Francis, 2000), the contents of which are incorporated herein by reference.
(§2) The osmotic minipumps were inserted subcutaneously with a single surgical procedure: after clipping the fur from the dorsal area and cleaning the skin with antiseptic skin preparation, about 1 cm long incision was made on the dorsum of the animal, midway between both scappulae. The pump was placed along the axis of the body to one side of the backbone. The incision was positioned about 1-2 cm caudal to the estimated caudal end of the minipump when it is in place.
(§3) After two weeks of treatment the animals were sacrificed. From each rat, brain (half) and a part of liver were dissected and frozen. The intestine was excised about ½ cm below the stomach about 1-2 cm long, washed with sucrose 0.32 Molar and frozen at −70° C.
(§4) Tissue homogenates were pre incubated (37° C.) in the presence of clorgyline or deprenyl to inhibit the activity of MAO-A or MAO-B respectively. For MAO-B determination, samples were incubated for 20 minutes with C^14 PEA 10 μM and for MAO-A determination samples were incubated 30 minutes with C^14 −5HT 100 μM as substrate Termination of the reaction was done by acidification. The labeled metabolites were extracted into toluene:ethyl acetate, and counted in a β counter.

[2] = target: MAO-B (Rattus norvegicus, UniProt P19643); experiment: in vivo; conditions: for MAO-B activity, brain / MAO-B activity, intestine / MAO-B activity, liver: two weeks; for inhibition at 0.02 mg/kg/day / inhibition at 0.4 mg/kg/day / inhibition at 0.8 mg/kg/day / inhibition at 0.05 mg/kg/day / inhibition at 0.1 mg/kg/day / inhibition at 0.2 mg/kg/day: rat
Excerpt: as §1, §2, §3, §4

[3] = AZILECT Product Label, May 2006; cited from earlier work
[4] = read-out: Percent of MAO-A inhibition, intestine
[5] = read-out: Percent of MAO-A inhibition, liver
[6] = po, read-out: Percent of MAO-B inhibition, brain
[7] = po, read-out: Percent of MAO-B inhibition, intestine
[8] = po, read-out: Percent of MAO-B inhibition, liver
[9] = sc, read-out: Percent of MAO-B inhibition, brain
[10] = sc, read-out: Percent of MAO-B inhibition, intestine
[11] = sc, read-out: Percent of MAO-B inhibition, liver

Sequence of MAO-B (P19643 whole entry): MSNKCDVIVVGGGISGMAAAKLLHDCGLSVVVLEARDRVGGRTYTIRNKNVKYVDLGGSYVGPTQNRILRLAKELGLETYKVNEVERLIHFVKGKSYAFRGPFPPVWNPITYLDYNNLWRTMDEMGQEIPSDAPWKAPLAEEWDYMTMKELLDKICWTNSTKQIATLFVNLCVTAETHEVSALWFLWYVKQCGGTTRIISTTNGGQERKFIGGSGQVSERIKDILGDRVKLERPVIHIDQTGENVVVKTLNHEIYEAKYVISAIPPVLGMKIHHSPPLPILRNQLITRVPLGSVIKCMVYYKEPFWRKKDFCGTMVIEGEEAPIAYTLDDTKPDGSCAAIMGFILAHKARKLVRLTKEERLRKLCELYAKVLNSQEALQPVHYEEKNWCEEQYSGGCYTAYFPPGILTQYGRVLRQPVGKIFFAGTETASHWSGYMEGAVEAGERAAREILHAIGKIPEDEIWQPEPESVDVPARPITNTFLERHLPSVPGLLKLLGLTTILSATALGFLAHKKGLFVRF
Sequence of MAO-A (P21396 whole entry, the tested form may be a part): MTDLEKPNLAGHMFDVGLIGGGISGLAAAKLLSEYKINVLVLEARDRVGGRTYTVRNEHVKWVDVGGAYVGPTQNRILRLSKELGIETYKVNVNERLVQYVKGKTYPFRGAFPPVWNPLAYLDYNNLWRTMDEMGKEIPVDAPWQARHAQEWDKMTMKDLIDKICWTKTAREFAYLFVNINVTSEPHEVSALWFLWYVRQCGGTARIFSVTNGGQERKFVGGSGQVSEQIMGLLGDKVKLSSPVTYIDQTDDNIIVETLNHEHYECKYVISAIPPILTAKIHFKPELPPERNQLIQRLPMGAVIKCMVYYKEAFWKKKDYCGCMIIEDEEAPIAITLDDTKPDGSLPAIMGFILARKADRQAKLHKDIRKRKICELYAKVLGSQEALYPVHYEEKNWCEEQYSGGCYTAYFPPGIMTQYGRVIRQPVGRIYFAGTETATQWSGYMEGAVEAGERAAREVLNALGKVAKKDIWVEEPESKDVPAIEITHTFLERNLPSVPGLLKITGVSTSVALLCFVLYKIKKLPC

C#CCN[C@@H]1CCc2ccccc21 [rasagiline, R(+)-N-propargyl-l-aminoindan]
inhibition at 0.4 mg/kg/day [1, 4]: 34%
inhibition at 0.8 mg/kg/day [1, 4]: 42%
inhibition at 0.02 mg/kg/day [1, 5]: 1%
inhibition at 0.05 mg/kg/day [1, 5]: 1%
inhibition at 0.1 mg/kg/day [1, 5]: 13%
inhibition at 0.2 mg/kg/day [1, 5]: 71%
inhibition at 0.4 mg/kg/day [1, 5]: 99%
inhibition at 0.8 mg/kg/day [1, 5]: 100%
MAOB inhibition in the brain, ALZET pumps versus oral group ([2]; brain): No change
MAO-B activity, brain ([2]; brain, oral, 0.02 mg/kg/day (salt)): 1586 dpm
MAO-B activity, brain ([2]; brain, oral, 0.05 mg/kg/day (salt)): 494 dpm
MAO-B activity, brain ([2]; brain, oral, 0.1 mg/kg/day (salt)): 181 dpm
MAO-B activity, brain ([2]; brain, oral, 0.2 mg/kg/day (salt)): 69 dpm
MAO-B activity, brain ([2]; brain, oral, 0.4 mg/kg/day (salt)): 34 dpm
MAO-B activity, brain ([2]; brain, oral, 0.8 mg/kg/day (salt)): 9 dpm
MAO-B activity, brain ([2]; brain, sc ALZET pumps, 0.02 mg/kg/day (salt)): 1229 dpm
MAO-B activity, brain ([2]; brain, sc ALZET pumps, 0.05 mg/kg/day (salt)): 346 dpm
MAO-B activity, brain ([2]; brain, sc ALZET pumps, 0.1 mg/kg/day (salt)): 198 dpm
MAO-B activity, brain ([2]; brain, sc ALZET pumps, 0.2 mg/kg/day (salt)): 75 dpm
MAO-B activity, brain ([2]; brain, sc ALZET pumps, 0.4 mg/kg/day (salt)): 38 dpm
MAOB inhibition in the intestine and liver, ALZET pumps compared with oral administration ([2]; intestine and liver, daily dose of up to 0.1 mg/kg): lower
maximal MAO-B inhibition in the intestine ([2]; intestine, both routes (oral, ALZET pumps)): about 85%
MAO-B activity, intestine ([2]; intestine, oral, 0.02 mg/kg/day (salt)): 3633 dpm
MAO-B activity, intestine ([2]; intestine, oral, 0.05 mg/kg/day (salt)): 3115 dpm
MAO-B activity, intestine ([2]; intestine, oral, 0.1 mg/kg/day (salt)): 2493 dpm
MAO-B activity, intestine ([2]; intestine, oral, 0.2 mg/kg/day (salt)): 2424 dpm
MAO-B activity, intestine ([2]; intestine, oral, 0.4 mg/kg/day (salt)): 2108 dpm
MAO-B activity, intestine ([2]; intestine, oral, 0.8 mg/kg/day (salt)): 2105 dpm
MAO-B activity, intestine ([2]; intestine, sc ALZET pumps, 0.02 mg/kg/day (salt)): 8265 dpm
MAO-B activity, intestine ([2]; intestine, sc ALZET pumps, 0.05 mg/kg/day (salt)): 4346 dpm
MAO-B activity, intestine ([2]; intestine, sc ALZET pumps, 0.1 mg/kg/day (salt)): 3225 dpm
MAO-B activity, intestine ([2]; intestine, sc ALZET pumps, 0.2 mg/kg/day (salt)): 2391 dpm
MAO-B activity, intestine ([2]; intestine, sc ALZET pumps, 0.4 mg/kg/day (salt)): 1852 dpm
MAO-B activity, intestine ([2]; intestine, sc ALZET pumps, 0.8 mg/kg/day (salt)): 1879 dpm
MAO-B activity, liver ([2]; oral, 0.02 mg/kg/day (salt)): 1127 dpm
MAO-B activity, liver ([2]; oral, 0.05 mg/kg/day (salt)): 511 dpm
MAO-B activity, liver ([2]; oral, 0.1 mg/kg/day (salt)): 224 dpm
MAO-B activity, liver ([2]; oral, 0.2 mg/kg/day (salt)): 136 dpm
MAO-B activity, liver ([2]; oral, 0.4 mg/kg/day (salt)): 38 dpm
MAO-B activity, liver ([2]; sc ALZET pumps, 0.02 mg/kg/day (salt)): 1974 dpm
MAO-B activity, liver ([2]; sc ALZET pumps, 0.05 mg/kg/day (salt)): 912 dpm
MAO-B activity, liver ([2]; sc ALZET pumps, 0.1 mg/kg/day (salt)): 486 dpm
MAO-B activity, liver ([2]; sc ALZET pumps, 0.2 mg/kg/day (salt)): 312 dpm
MAO-B activity, liver ([2]; sc ALZET pumps, 0.4 mg/kg/day (salt)): 181 dpm
MAO-B activity, liver ([2]; sc ALZET pumps, 0.8 mg/kg/day (salt)): 166 dpm
inhibition at 0.02 mg/kg/day [2, 6]: 83%
inhibition at 0.4 mg/kg/day [2, 6]: 100%
inhibition at 0.8 mg/kg/day [2, 6]: 100%
inhibition at 0.02 mg/kg/day [2, 7]: 74%
inhibition at 0.05 mg/kg/day [2, 7]: 78%
inhibition at 0.1 mg/kg/day [2, 7]: 82%
inhibition at 0.2 mg/kg/day [2, 7]: 83%
inhibition at 0.4 mg/kg/day [2, 7]: 85%
inhibition at 0.8 mg/kg/day [2, 7]: 85%
inhibition at 0.02 mg/kg/day [2, 8]: 83%
inhibition at 0.05 mg/kg/day [2, 8]: 92%
inhibition at 0.8 mg/kg/day [2, 8]: 100%
inhibition at 0.4 mg/kg/day [2, 9]: 100%
inhibition at 0.8 mg/kg/day [2, 9]: 100%
inhibition at 0.02 mg/kg/day [2, 10]: 37%
inhibition at 0.05 mg/kg/day [2, 10]: 67%
inhibition at 0.1 mg/kg/day [2, 10]: 76%
inhibition at 0.2 mg/kg/day [2, 10]: 82%
inhibition at 0.4 mg/kg/day [2, 10]: 86%
inhibition at 0.8 mg/kg/day [2, 10]: 86%
inhibition at 0.02 mg/kg/day [2, 11]: 67%
inhibition at 0.05 mg/kg/day [2, 11]: 85%
inhibition at 0.1 mg/kg/day [2, 11]: 92%
absolute bioavailability [3]: about 36%
